According to ChEMBL document CHEMBL1275326, “Synthesis and identification of a new class of antileukemic agents containing 2-(arylcarboxamide)-(S)-6-amino-4,5,6,7-tetrahydrobenzo[d]thiazole” (Eur J Med Chem, 2010):
pIC50: −log10 of the molar value. The source made the active and inactive calls. The calls are words filed in the database; no cut-off is given here.

Assays:
K562 [1] = assay: Cytotoxicity against human K562 cells after 48 to 72 hrs by MTT assay; assay type: functional, cell-based
CCRF-CEM [2] = assay: Cytotoxicity against human CEM cells after 48 to 72 hrs by MTT assay; assay type: functional, cell-based
K562 [3] = assay: Cytotoxicity against human K562 cells at 10 to 100 uM after 24 hrs by trypan blue exclusion assay; assay type: functional, cell-based
K562 [4] = assay: Cytotoxicity against human K562 cells after 24 hrs by LDH release assay; assay type: functional, cell-based
[5] = Cytotoxicity against human HEK293T cells at 1 to 5 uM after 48 to 72 hrs by MTT assay; assay type: cell-based; settings: hek-293t
K562 [6] = assay: Cell cycle arrest in human K562 cells assessed as accumulation at G1 phase at 10 uM after 48 hrs using propidium iodide staining by FACS analysis; assay type: functional, cell-based
K562 [7] = assay: Cell cycle arrest in human K562 cells assessed as accumulation at G2/M phase at 10 uM after 48 hrs using propidium iodide staining by FACS analysis; assay type: functional, cell-based
K562 [8] = assay: Cell cycle arrest in human K562 cells assessed as accumulation at S phase at 10 uM after 48 hrs using propidium iodide staining by FACS analysis; assay type: functional, cell-based
K562 [9] = assay: Cytotoxicity against human K562 cells at 10 to 100 uM by MTT assay; assay type: functional, cell-based; settings: TDE = time-dependent effect
CCRF-CEM [10] = assay: Cytotoxicity against human CEM cells at 10 to 100 uM by MTT assay; assay type: functional, cell-based; settings: TDE = time-dependent effect
K562 [11] = assay: Cell cycle arrest in human K562 cells assessed as accumulation at G0/G1 phase at 10 uM after 48 hrs using propidium iodide staining by FACS analysis; assay type: functional, cell-based

N[C@H]1CCc2nc(NC(=O)c3cc([N+](=O)[O-])cc([N+](=O)[O-])c3)sc2C1
pIC50 (K562 [1]): 5.09 | pIC50 (CCRF-CEM [2]): 5.04

CC(C)(C)c1ccc(C(=O)Nc2nc3c(s2)C[C@@H](N)CC3)cc1.Cl
Activity (K562 [3]): Active | Activity (K562 [4]): Dose-dependent effect | Activity [5]: Non-toxic | Activity (K562 [6]): inactive | Activity (K562 [7]): inactive | Activity (K562 [8]): inactive | Activity (K562 [1]): Dose-dependent effect | pIC50 (K562 [1]): 5.34 | Activity (K562 [9]): tde | Activity (CCRF-CEM [10]): tde | Activity (CCRF-CEM [2]): Dose-dependent effect | pIC50 (CCRF-CEM [2]): 5.34 | Activity (K562 [11]): inactive

COc1cccc(C(=O)Nc2nc3c(s2)C[C@@H](N)CC3)c1
pIC50 (K562 [1]): 4.75 | pIC50 (CCRF-CEM [2]): 4.86

N[C@H]1CCc2nc(NC(=O)c3c(F)cccc3F)sc2C1
pIC50 (K562 [1]): < 4.00 | pIC50 (CCRF-CEM [2]): 4.09

N[C@H]1CCc2nc(NC(=O)c3ccccc3)sc2C1
pIC50 (K562 [1]): 4.18 | pIC50 (CCRF-CEM [2]): 4.21

N[C@H]1CCc2nc(NC(=O)c3cccc(Br)c3)sc2C1
pIC50 (K562 [1]): 4.68 | pIC50 (CCRF-CEM [2]): 4.64

N[C@H]1CCc2nc(NC(=O)c3ccc(Cl)cc3Cl)sc2C1
pIC50 (K562 [1]): 5.11 | pIC50 (CCRF-CEM [2]): 5.06

N[C@H]1CCc2nc(NC(=O)c3ccccc3F)sc2C1
pIC50 (K562 [1]): 4.24 | pIC50 (CCRF-CEM [2]): 4.25
